How the values were obtained:
97 kinases = experiment: KINOMEscan scanEDGE selectivity score; type: binding, human; conditions: 10000 nM
Experimental: The possibility of KDS12025 on kinase off-target, the KINOMEscan panel of scanEDGE assay was conducted in DiscoverX (CA, USA) using a site-directed competition binding with the test compounds. The assay results are given in Supplementary Table 4 and experimental information is available on the DiscoverX web page (www.discoverx.com). Moreover, the Delta SafetyScreen87 panel assay was conducted in Eurofins Discovery (Cerep, France). The assay results are given in Supplementary Table 5 and experimental information is available on the DiscoverX web page (https://www.eurofinsdiscoveryservices.com).

mouse hemoglobin (mHb) = target: T1, mouse hemoglobin (mHb) (Mus musculus, UniProt P02088); experiment: ROS-Glo H2O2 assay with mouse hemoglobin; type: biochemical; conditions: Fig. S1f; read-out: EC50, H2O2 decomposition with mouse hemoglobin (mHb)
T1 construct: Mouse hemoglobin (Hb) purified from erythrocytes; purchased CUSABIO CSB-NP004901m; host or cells: erythrocytes
Experimental: Mouse hemoglobin (Hb) purified from erythrocytes (Cat. CSB-NP004901m, CUSABIO) was used for the ROS-Glo H2O2 assay. KDS12025 was added in a dose-dependent manner to a reaction mixture containing mouse Hb and H2O2. The assay was performed according to the manufacturer’s protocol (Promega), and luminescence was measured using an iD5 plate reader. H2O2-decomposing activity was calculated as the percentage reduction in luminescence relative to controls. Assays with human Hb were conducted in parallel for comparison.

APP/PS1 mice = experiment: Hippocampal slice electrophysiology, APP/PS1 mice; type: in vivo, mouse; conditions: for tonic GABA current, granule cells: Fig. S10k; for sIPSC amplitude: Fig. S10l; for sIPSC frequency: Fig. S10m
Experimental: The mice were deeply anesthetized with 3% isoflurane followed by decapitation. The brain was quickly excised from the skull and submerged in a chilled cutting solution that contained 234 mM sucrose, 24 mM NaHCO3, 11 mM d(+)-glucose, 10 mM MgSO4, 2.5 mM KCl, […], and 0.5 mM CaCl2. Transverse hippocampi (300 µm thick) were prepared with a vibrating microtome (PRO7N; DSK) and transferred to an artificial cerebrospinal fluid (aCSF) solution that contained 130 mM NaCl, 24 mM NaHCO3, 1.25 mM NaH2PO4, 3.5 mM KCl, 1.5 mM CaCl2, 1.5 mM MgCl2, and 10 mM d(+)-glucose, pH 7.4. The slices were incubated at RT for at least 1 h before recording. All the solutions were saturated with 95% O2 and 5% CO2.
For recording of tonic GABA currents, slices were transferred to a recording chamber that was mounted on an upright Zeiss microscope and continuously perfused with aCSF solution. The slice was viewed with a 60× water immersion objective (numerical aperture = […]) with infrared differential interference contrast optics. […] Cellular morphology was visualized by a CMOS camera (Hamamatsu Photonics, Japan) and Imaging Workbench software (INDEC Biosystems). Whole-cell patch recordings were made from […] DG granule cells of the hippocampus. The holding potential was -70 mV. The pipette resistance was typically 6–8 MΩ, and the pipette was filled with an internal solution that contained (in mM): 135 CsCl; 4 NaCl; 0.5 CaCl2; 10 HEPES; 5 EGTA; 2 Mg-ATP; 0.5 Na2-GTP; 10 QX-314; pH adjusted to 7.2 with CsOH (278 to 285 mOsmol). The baseline current before the tonic current was measured was recorded with CNQX (20 µM) and D-AP5 (50 µM). The frequency and amplitude of spontaneous inhibitory postsynaptic currents before bicuculline (50 µM) administration were detected and measured via Mini Analysis (Synaptosoft, USA).
Dentate granule cell synaptic responses were elicited at a low frequency of 0.1 Hz by stimulating perforant path fibers. The stimulation was delivered over […] at intensities ranging from 0 to 1000 μA using a constant current isolation unit. A tungsten bipolar electrode was positioned in the molecular layer to stimulate the perforant path fibers. Recordings of the evoked excitatory postsynaptic potentials (EPSPs) […], and the pipette was filled with an internal solution that contained the following (in mM): 120 potassium gluconate; 10 KCl; 1 MgCl2; 0.5 EGTA; 40 HEPES; pH adjusted to 7.2 with KOH. The spiking probability was determined by the number of spikes generated per total stimulation. Electrical signals were digitized and sampled at […] with the Digidata 1550B data acquisition system and the Multiclamp 700B Amplifier (Molecular Devices, USA) via pClamp software.

purified human Hb = target: T2, purified human Hb (Homo sapiens, UniProt P68871); experiment: ITC binding affinity assay; conditions: Hb+KDS12025, without H2O2
T2 construct: purchased MP Biomedical 55914
Experimental: All ITC experiments were conducted via a MicroCal AutoiTC200 (Malvern Panalytical) at the Korea Basic Science Institute (Ochang, Korea). Binding affinity was measured via the addition of 40 µl of 5 mM KDS12025 (ligand) and 200 µl of 200 μM purified human Hb (protein) (MP Biomedical, 55914) in sodium phosphate buffer (pH 7.2). For each titration experiment, 2 µl of KDS12025 was injected into purified human Hb for 4 s at intervals of 180 s at 25 °C. Overall, 19 injections were performed for each experiment, and the data were analyzed via MicroCal Origin 8.0 software.

T2 sequence (P68871 2-147 limits assumed): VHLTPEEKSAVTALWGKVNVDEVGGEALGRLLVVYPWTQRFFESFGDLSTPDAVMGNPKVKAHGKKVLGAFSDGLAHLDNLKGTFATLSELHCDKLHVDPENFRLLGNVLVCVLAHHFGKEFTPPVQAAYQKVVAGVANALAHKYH
T2 sequence (P69905 2-142 partner limits assumed): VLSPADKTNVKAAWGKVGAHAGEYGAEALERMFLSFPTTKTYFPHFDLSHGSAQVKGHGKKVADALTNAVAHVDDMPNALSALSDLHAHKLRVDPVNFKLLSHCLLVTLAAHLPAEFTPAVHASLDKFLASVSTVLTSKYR
T1 sequence (P02088 2-147 limits assumed): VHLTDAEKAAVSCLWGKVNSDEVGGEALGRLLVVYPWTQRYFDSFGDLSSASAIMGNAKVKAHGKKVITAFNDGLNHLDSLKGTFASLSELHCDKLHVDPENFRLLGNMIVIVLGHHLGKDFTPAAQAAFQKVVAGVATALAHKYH
T1 sequence (P01942 2-142 partner limits assumed): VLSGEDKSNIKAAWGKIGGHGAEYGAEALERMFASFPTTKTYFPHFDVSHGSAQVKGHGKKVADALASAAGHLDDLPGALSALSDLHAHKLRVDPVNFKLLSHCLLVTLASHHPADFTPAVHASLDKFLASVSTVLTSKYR

Structure (SMILES): CNc1ccc(NCCc2ccccc2OC)cc1.Cl [KDS12025, N^1-(2-methoxyphenethyl)-N^4-methylbenzene-1,4-diamine hydrochloride salt]
- Number of Hits, S(1) (97 kinases): 0
- Number of Hits, S(10) (97 kinases): 0
- Number of Hits, S(35) (97 kinases): 0
- EC50 (mouse hemoglobin (mHb)): 24 nM
- tonic GABA current, granule cells (APP/PS1 mice; 3mpk i.p.): 4.160±0.8926
- sIPSC amplitude (APP/PS1 mice; 3mpk i.p.): 36.09±4.601
- sIPSC frequency (APP/PS1 mice; 3mpk i.p.): 1.355±0.2694
- tonic GABA current, granule cells (APP/PS1 mice; 10mpk i.p.): 3.113±0.7279
- sIPSC amplitude (APP/PS1 mice; 10mpk i.p.): 26.02±1.734
- sIPSC frequency (APP/PS1 mice; 10mpk i.p.): 1.177±0.5985
- spike probability across stimulation intensities (APP/PS1 mice; 100–1000 μA, 3 mg/kg/day ad libitum, Fig. 5l left): 0.7455±0.1216
- ΔG (ITC) (purified human Hb): -7.53 kcal/mol
- ΔH (ITC) (purified human Hb): -580 kcal/mol
